Results as given in ChEMBL document CHEMBL5236595, “JDQ443, a Structurally Novel, Pyrazole-Based, Covalent Inhibitor of KRASG12C for the Treatment of Solid Tumors” (J Med Chem, 2022).
Converted amounts (≈) assume the structure as drawn.

What was measured:
[1] = Dose normalized AUC in Beagle dog at 15 mg/kg, po measured upto 24 hrs by LC-MS/MS method; type: ADME, organism-based, Canis lupus familiaris; settings: in vivo
[2] = system: GTPase KRas (Homo sapiens), P01116 [G12C]; assay: In vivo target occupancy at KRAS G12C mutant in human MIA PaCa-2 cells xenografted mouse assessed as decrease in free KRAS G12C level at 30 mg/kg, po after 3 hrs; type: functional, organism-based
[3] = Cmax in human MIA PaCa-2 cells xenografted mouse at 30 mg/kg, po; type: ADME, organism-based; parameters: dose 30 mg/kg, route po; settings: in vivo
[4] = AUCinfinity in mouse at 30 mg/kg, po measured upto 24 hrs by LC-MS/MS method; type: ADME, organism-based; parameters: dose 30 mg/kg, time < 24 hrs, route po; settings: in vivo
[5] = AUCinfinity in Beagle dog at 15 mg/kg, po measured upto 24 hrs by LC-MS/MS method; type: ADME, organism-based, Canis lupus familiaris; parameters: dose 15 mg/kg, time < 24 hrs, route po; settings: in vivo
MIA PaCa-2 [6] = assay: Antitumor activity against human MIA PaCa-2 cells xenografted in mouse assessed as tumor regression at 30 mg/kg, po; type: functional
NCI-H1437 = assay: Antiproliferative activity against human NCI-H1437 cells by resazurin assay; type: functional
NCI-H358 = assay: Antiproliferative activity against human NCI-H358 cells by resazurin assay; type: functional
[7] = system: GTPase KRas (Homo sapiens), P01116 [G12C]; assay: In vivo target occupancy at KRAS G12C mutant in human MIA PaCa-2 cells xenografted mouse assessed as decrease in […] expression at 30 mg/kg, po after 3 hrs; type: functional, organism-based
[8] = system: GTPase KRas (Homo sapiens), P01116 [G12C]; assay: In vivo target occupancy at KRAS G12C mutant in human MIA PaCa-2 cells xenografted mouse assessed as decrease in […] expression at 30 mg/kg, po after 24 hrs; type: functional, organism-based
[9] = system: GTPase KRas (Homo sapiens), P01116 [G12C]; assay: In vivo target occupancy at KRAS G12C mutant in human MIA PaCa-2 cells xenografted mouse assessed as decrease in […] expression at 30 mg/kg, po after 6 hrs; type: functional, organism-based
[10] = Plasma protein binding in mouse incubated for 6 hrs by LC-MS/MS based rapid equlibrium dialysis method; type: ADME, cell-free; settings: read-out: PPB (converted)
[11] = Tmax in Beagle dog at 15 mg/kg, po measured upto 24 hrs by LC-MS/MS method; type: ADME, organism-based, Canis lupus familiaris; settings: in vivo
[12] = Aqueous solubility of compound in pH 4; type: physicochemical; settings: aqueous medium
Nav1.5 = Nav1.5 (Homo sapiens, UniProt Q14524); assay: Inhibition of Nav1.5 (unknown origin) at 50 uM relative to control
[13] = target: Voltage-dependent L-type calcium channel subunit alpha-1C (Homo sapiens, UniProt Q13936); assay: Inhibition of Cav1.2 (unknown origin)
[14] = AUC in human MIA PaCa-2 cells xenografted mouse at 30 mg/kg, po; type: ADME, organism-based; parameters: dose 30 mg/kg, route po; settings: in vivo
[15] = target: Sodium channel protein type 5 subunit alpha (Homo sapiens, UniProt Q14524); assay: Inhibition of Nav1.5 (unknown origin)
Cytochrome P450 2D6 = Cytochrome P450 2D6 (Homo sapiens, UniProt P10635); assay: Inhibition of CYP2D6 in human liver microsomes using bufuralol as substrate incubated for 10 to 30 mins in presence of NADPH by LC-MS/MS method; type: ADME, Microsome
Cytochrome P450 3A4 [16] = target: T1, Cytochrome P450 3A4 (Homo sapiens, UniProt P08684); assay: Time dependent inhibition of CYP3A4 in pooled human liver microsomes measured upto 30 mins by LC-MS/MS method; type: ADME, Microsome; settings: 0.5 h
[17] = Solubility of compound in FaSSIF; type: ADME
[18] = Apparent permeability in human Caco-2 cells; type: ADME, cell-based
[19] = Plasma protein binding in dog incubated for 6 hrs by LC-MS/MS based rapid equlibrium dialysis method; type: ADME, cell-free, Canis lupus familiaris; settings: read-out: PPB (converted)
[20] = Plasma protein binding in human incubated for 6 hrs by LC-MS/MS based rapid equlibrium dialysis method; type: ADME, cell-free; settings: read-out: PPB (converted)
[21] = Cmax in mouse at 30 mg/kg, po measured upto 24 hrs by LC-MS/MS method; type: ADME, organism-based; parameters: dose 30 mg/kg, time < 24 hrs, route po; settings: in vivo
Cytochrome P450 3A4 [22] = target: T1, Cytochrome P450 3A4; assay: Inhibition of CYP3A4 in human liver microsomes using testosterone as substrate incubated for 10 to 30 mins in presence of NADPH by LC-MS/MS method; type: ADME, Microsome
[23] = Aqueous solubility of compound in pH 6.8; type: physicochemical; settings: aqueous medium
[24] = Lipophilicity, logD of compound at pH 7.4; type: physicochemical; settings: buffer
[25] = Dose normalized AUC in mouse at 30 mg/kg, po measured upto 24 hrs by LC-MS/MS method; type: ADME, organism-based; settings: in vivo
[26] = system: GTPase KRas (Homo sapiens), P01116 [G12C]; assay: In vivo target occupancy at KRAS G12C mutant in human MIA PaCa-2 cells xenografted mouse assessed as decrease in free KRAS G12C level at 30 mg/kg, po after 24 hrs; type: functional, organism-based
[27] = Volume of distribution at steady state in mouse at 1 mg/kg, iv measured upto 24 hrs by LC-MS/MS method; type: ADME, organism-based; settings: in vivo, read-out: Vdss
[28] = system: GTPase KRas (Homo sapiens), P01116 [G12C]; assay: In vivo target occupancy at KRAS G12C mutant in human MIA PaCa-2 cells xenografted mouse assessed as decrease in free KRAS G12C level at 30 mg/kg, po after 6 hrs; type: functional, organism-based
MIA PaCa-2 [29] = assay: Antitumor activity against human MIA PaCa-2 cells xenografted in mouse assessed as tumor regression at 10 mg/kg, po; type: functional
[30] = Solubility of compound in FeSSIF; type: ADME
[31] = Plasma protein binding in rat incubated for 6 hrs by LC-MS/MS based rapid equlibrium dialysis method; type: ADME, cell-free; settings: read-out: PPB (converted)
Cav1.2 = Cav1.2 (Homo sapiens, UniProt Q13936); assay: Inhibition of Cav1.2 (unknown origin) at 50 uM relative to control
[32] = Tmax in mouse at 30 mg/kg, po measured upto 24 hrs by LC-MS/MS method; type: ADME, organism-based; settings: in vivo
[33] = Toxicity in mouse xenografted with human MIA PaCa-2 cells assessed as tolerability at 3 to 30 mg/kg, po; type: organism-based; settings: in vivo, dose 3-30 mg/kg
[34] = Volume of distribution at steady state in Beagle dog at 0.1 mg/kg, iv measured upto 24 hrs by LC-MS/MS method; type: ADME, organism-based, Canis lupus familiaris; settings: in vivo, read-out: Vdss
[35] = Cmax in Beagle dog at 15 mg/kg, po measured upto 24 hrs by LC-MS/MS method; type: ADME, organism-based, Canis lupus familiaris; parameters: time < 24 hrs, dose 15 mg/kg, route po; settings: in vivo
[36] = target: Voltage-gated inwardly rectifying potassium channel KCNH2 (Homo sapiens, UniProt Q12809); assay: Inhibition of human ERG by manual patch clamp method; type: toxicity
Cytochrome P450 2C9 [37] = target: T2, Cytochrome P450 2C9 (Homo sapiens, UniProt P11712); assay: Time dependent inhibition of CYP2C9 in pooled human liver microsomes measured upto 30 mins by LC-MS/MS method; type: ADME, Microsome; settings: 0.5 h
GTPase KRas = GTPase KRas (Homo sapiens, UniProt P01116, G12C); assay: Inhibition of KRAS G12C mutant in human NCI-H358 cells assessed as reduction in ERK phosphorylation incubated for 6 hrs by MSD assay; type: cell-based
Cytochrome P450 2C9 [38] = target: T2, Cytochrome P450 2C9; assay: Inhibition of CYP2C9 in human liver microsomes using diclofenac as substrate incubated for 10 to 30 mins in presence of NADPH by LC-MS/MS method; type: ADME, Microsome
[39] = Tmax in mouse xenografted with human MIA PaCa-2 cells at 3 to 30 mg/kg, po; type: ADME, organism-based; settings: in vivo, dose 3-30 mg/kg
[40] = Apparent permeability across apical to basolateral side in MDCK-MDR1 cells at 10 uM after 2 hrs by LC-MS/MS analysis; type: ADME, cell-based, Canis lupus familiaris; settings: dog

GTPase KRas (Homo sapiens), P01116 [G12C], sequence (P01116 whole entry G12C): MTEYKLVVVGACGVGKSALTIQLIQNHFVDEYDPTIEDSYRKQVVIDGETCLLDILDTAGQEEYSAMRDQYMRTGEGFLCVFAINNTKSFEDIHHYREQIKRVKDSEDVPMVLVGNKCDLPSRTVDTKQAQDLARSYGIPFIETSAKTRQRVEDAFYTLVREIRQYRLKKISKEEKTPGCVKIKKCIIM
T1 sequence (P08684 whole entry): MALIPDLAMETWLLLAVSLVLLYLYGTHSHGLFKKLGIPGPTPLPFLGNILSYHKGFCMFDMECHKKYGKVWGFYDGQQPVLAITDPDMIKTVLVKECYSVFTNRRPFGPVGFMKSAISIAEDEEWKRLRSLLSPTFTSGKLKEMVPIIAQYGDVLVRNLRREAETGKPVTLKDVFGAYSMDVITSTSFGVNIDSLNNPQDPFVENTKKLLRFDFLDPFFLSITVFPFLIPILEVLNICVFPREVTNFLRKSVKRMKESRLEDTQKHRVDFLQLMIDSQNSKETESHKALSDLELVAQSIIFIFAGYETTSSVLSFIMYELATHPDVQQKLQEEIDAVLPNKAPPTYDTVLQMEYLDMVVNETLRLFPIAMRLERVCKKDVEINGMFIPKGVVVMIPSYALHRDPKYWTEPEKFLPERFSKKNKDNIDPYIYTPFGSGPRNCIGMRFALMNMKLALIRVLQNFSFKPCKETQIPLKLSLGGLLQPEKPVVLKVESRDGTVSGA
T2 sequence (P11712 whole entry): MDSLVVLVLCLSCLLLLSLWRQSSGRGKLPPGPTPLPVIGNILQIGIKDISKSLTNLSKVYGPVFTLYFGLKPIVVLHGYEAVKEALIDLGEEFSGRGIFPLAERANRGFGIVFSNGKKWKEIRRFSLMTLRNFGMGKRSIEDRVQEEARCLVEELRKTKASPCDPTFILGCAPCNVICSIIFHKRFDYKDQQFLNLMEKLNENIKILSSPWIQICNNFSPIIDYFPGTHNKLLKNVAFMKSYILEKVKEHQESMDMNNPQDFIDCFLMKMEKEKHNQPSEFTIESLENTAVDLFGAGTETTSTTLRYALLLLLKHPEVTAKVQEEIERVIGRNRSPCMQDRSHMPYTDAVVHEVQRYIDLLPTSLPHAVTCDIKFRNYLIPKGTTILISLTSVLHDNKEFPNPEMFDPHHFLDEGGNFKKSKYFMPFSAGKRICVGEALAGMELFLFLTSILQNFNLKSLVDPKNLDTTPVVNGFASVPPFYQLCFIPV
Cytochrome P450 2D6, sequence (P10635 whole entry): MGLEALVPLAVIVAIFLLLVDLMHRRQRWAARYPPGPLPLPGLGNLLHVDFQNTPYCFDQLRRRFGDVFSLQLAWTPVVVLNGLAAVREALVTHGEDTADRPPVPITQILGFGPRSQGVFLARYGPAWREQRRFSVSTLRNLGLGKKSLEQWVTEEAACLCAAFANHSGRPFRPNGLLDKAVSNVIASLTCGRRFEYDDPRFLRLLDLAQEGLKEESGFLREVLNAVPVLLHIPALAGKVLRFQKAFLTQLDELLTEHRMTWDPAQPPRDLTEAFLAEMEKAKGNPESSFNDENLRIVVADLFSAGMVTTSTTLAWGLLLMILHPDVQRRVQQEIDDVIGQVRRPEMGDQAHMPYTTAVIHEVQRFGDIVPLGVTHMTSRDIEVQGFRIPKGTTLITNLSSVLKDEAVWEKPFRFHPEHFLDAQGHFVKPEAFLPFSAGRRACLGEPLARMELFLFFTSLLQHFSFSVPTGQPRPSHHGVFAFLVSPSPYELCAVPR
GTPase KRas, sequence (P01116 whole entry G12C): as the sequence (P01116 whole entry G12C) above
Sodium channel protein type 5 subunit alpha, sequence (Q14524 whole entry): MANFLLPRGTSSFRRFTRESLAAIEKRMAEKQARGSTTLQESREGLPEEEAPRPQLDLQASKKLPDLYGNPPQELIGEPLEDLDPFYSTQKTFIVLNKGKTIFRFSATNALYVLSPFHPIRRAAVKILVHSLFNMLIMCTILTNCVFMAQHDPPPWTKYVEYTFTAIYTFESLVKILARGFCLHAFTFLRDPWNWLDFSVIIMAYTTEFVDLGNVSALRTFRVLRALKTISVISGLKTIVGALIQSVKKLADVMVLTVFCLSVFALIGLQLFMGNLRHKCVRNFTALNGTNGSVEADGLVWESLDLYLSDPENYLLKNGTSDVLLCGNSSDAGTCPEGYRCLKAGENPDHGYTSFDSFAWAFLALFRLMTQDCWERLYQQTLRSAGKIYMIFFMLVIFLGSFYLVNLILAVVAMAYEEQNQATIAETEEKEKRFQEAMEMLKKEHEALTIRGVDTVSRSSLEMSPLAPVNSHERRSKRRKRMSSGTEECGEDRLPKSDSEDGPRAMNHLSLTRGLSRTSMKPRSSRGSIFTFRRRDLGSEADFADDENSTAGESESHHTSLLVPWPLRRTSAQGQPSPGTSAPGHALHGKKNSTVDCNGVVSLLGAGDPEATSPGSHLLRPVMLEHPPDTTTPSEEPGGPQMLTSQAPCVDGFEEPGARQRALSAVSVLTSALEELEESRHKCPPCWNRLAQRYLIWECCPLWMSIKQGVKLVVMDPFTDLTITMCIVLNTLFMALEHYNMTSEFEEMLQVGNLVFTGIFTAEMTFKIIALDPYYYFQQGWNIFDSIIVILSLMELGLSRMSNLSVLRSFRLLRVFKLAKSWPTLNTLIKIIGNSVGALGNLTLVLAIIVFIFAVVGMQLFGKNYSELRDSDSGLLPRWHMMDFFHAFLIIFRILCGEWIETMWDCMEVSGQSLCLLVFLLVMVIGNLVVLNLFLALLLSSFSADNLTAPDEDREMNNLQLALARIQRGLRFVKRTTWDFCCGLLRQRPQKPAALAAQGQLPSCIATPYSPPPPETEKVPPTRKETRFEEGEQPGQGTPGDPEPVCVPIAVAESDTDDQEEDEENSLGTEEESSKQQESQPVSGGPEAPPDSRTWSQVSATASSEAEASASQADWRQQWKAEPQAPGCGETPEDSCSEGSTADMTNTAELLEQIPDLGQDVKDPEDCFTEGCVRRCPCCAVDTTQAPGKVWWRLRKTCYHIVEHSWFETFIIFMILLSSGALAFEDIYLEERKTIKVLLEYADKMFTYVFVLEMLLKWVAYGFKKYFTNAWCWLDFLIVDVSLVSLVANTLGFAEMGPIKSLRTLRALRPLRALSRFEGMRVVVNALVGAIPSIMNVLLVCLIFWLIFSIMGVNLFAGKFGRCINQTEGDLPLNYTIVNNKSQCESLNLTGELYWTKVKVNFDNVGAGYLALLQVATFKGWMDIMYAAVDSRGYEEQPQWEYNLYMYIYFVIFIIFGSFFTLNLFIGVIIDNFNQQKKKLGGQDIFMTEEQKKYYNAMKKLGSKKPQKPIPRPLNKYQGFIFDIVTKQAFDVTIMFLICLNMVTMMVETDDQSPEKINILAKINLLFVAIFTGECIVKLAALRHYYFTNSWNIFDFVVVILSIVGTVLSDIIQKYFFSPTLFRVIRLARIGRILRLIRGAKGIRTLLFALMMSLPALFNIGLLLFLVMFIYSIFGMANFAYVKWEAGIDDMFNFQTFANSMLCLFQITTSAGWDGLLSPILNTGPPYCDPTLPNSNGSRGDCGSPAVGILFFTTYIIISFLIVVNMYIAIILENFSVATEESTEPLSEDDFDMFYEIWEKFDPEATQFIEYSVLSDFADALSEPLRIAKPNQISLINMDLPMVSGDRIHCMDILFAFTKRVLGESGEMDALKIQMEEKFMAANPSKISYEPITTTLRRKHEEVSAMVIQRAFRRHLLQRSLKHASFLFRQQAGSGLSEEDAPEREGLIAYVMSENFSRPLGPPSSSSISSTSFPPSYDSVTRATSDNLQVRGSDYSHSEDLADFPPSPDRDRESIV
Voltage-gated inwardly rectifying potassium channel KCNH2, sequence (Q12809 whole entry): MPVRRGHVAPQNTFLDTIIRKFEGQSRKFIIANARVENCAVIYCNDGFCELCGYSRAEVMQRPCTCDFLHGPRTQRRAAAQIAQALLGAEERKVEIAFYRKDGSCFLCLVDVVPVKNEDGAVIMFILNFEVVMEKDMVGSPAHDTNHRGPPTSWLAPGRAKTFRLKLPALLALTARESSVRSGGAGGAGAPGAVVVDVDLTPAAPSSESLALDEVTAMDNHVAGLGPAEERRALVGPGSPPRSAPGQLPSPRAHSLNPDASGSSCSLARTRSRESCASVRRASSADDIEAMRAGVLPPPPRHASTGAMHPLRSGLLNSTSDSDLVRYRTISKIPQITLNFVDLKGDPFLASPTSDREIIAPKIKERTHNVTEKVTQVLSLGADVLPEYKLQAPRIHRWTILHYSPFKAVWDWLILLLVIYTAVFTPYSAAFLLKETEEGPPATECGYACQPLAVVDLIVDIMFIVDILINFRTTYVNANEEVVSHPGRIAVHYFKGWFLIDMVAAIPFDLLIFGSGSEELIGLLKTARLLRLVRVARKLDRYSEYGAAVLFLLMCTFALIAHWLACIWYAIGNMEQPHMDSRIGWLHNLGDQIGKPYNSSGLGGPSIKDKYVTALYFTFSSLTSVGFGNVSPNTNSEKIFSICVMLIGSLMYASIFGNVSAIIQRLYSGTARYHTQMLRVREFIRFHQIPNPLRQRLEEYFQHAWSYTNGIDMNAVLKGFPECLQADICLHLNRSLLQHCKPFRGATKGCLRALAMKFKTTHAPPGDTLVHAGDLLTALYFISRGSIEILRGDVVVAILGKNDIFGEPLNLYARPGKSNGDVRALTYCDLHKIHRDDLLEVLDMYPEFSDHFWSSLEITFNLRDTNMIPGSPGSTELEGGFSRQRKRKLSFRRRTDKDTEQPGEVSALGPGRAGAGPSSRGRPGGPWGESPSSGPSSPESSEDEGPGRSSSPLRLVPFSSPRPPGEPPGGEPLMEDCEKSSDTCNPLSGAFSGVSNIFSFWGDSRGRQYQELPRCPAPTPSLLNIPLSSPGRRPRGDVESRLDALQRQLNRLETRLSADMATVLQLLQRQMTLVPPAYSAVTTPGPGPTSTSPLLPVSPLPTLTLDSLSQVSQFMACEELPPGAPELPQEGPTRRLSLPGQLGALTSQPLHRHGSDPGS

**Q.** For `C=CC(=O)N1CC2(CC(n3nc(-c4ccc5c(cnn5C)c4)c(-c4c(Cl)c(C)cc5[nH]ncc45)c3C)C2)C1` [OPNURASIB], which AUC/dose [1] is on record?
**A.** The AUC/dose was 0.65 µM·h.

**Q.** And the Occ [2]?
**A.** Its Occ is 3%.

**Q.** What about the Cmax [3] of the same compound?
**A.** The Cmax was 1700 nM.

**Q.** What about the AUC(0-inf) [4] of the same compound?
**A.** Its AUC(0-inf) is 6 µM·h.

**Q.** And the AUC(0-inf) [5]?
**A.** Its AUC(0-inf) is 10 µM·h.

**Q.** What about the Activity (MIA PaCa-2 [6]) of the same compound?
**A.** The Activity was -87%.

**Q.** And the GI50 (NCI-H1437)?
**A.** Its GI50 is 4.4 µM.

**Q.** What about the GI50 (NCI-H358) of the same compound?
**A.** The GI50 was 0.018 µM.

**Q.** What about the Occ [7] of the same compound?
**A.** Its Occ is 27%.

**Q.** What about the Occ [8] of the same compound?
**A.** The Occ was 100%.

**Q.** What about the Occ [9] of the same compound?
**A.** The Occ was 37%.

**Q.** And the fraction unbound at 6 h [10]?
**A.** The fraction unbound at 6 h was 0.016.

**Q.** What about the Tmax [11] of the same compound?
**A.** The Tmax was 5 h.

**Q.** And the solubility [12]?
**A.** The solubility was 10 µM (≈ 5.26 µg/mL).

**Q.** What about the inhibition at 50 µM (Nav1.5) of the same compound?
**A.** The inhibition at 50 µM was 12%.

**Q.** And the IC50 [13]?
**A.** The IC50 was over 10 µM.

**Q.** And the AUC [14]?
**A.** Its AUC is 8.9 µM·h.

**Q.** What about the IC50 [15] of the same compound?
**A.** Its IC50 is over 10 µM.

**Q.** And the IC50 (Cytochrome P450 2D6)?
**A.** The IC50 was over 20 µM.

**Q.** What about the TDI (Cytochrome P450 3A4 [16]) of the same compound?
**A.** Its TDI is “Not Active”.

**Q.** And the solubility [17]?
**A.** The solubility was 6 µg/mL (≈ 11.4 µM).

**Q.** What about the Papp [18] of the same compound?
**A.** Its Papp is 6.78 ×10⁻⁶ cm/s.

**Q.** And the fraction unbound at 6 h [19]?
**A.** The fraction unbound at 6 h was 0.031.

**Q.** What about the fraction unbound at 6 h [20] of the same compound?
**A.** The fraction unbound at 6 h was 0.007.

**Q.** What about the Cmax [21] of the same compound?
**A.** Its Cmax is 2000 nM.

**Q.** And the IC50 (Cytochrome P450 3A4 [22])?
**A.** Its IC50 is 6.23 µM.

**Q.** What about the solubility [23] of the same compound?
**A.** The solubility was 10 µM (≈ 5.26 µg/mL).

**Q.** And the logD [24]?
**A.** Its logD is 4.6.

**Q.** And the AUC/dose [25]?
**A.** Its AUC/dose is 0.2 µM·h.

**Q.** What about the Occ [26] of the same compound?
**A.** The Occ was 23%.

**Q.** What about the Vd [27] of the same compound?
**A.** The Vd was 5.9 L/kg.

**Q.** And the Occ [28]?
**A.** Its Occ is 2%.

**Q.** What about the Activity (MIA PaCa-2 [29]) of the same compound?
**A.** The Activity was -34%.

**Q.** What about the solubility [30] of the same compound?
**A.** The solubility was 250 µg/mL (≈ 475 µM).

**Q.** What about the fraction unbound at 6 h [31] of the same compound?
**A.** The fraction unbound at 6 h was 0.024.

**Q.** And the inhibition at 50 µM (Cav1.2)?
**A.** The inhibition at 50 µM was 8%.

**Q.** And the Tmax [32]?
**A.** Its Tmax is 0.5 h.

**Q.** What about the Activity [33] of the same compound?
**A.** Its Activity is “Non-Toxic”.

**Q.** What about the Vd [34] of the same compound?
**A.** Its Vd is 4.2 L/kg.

**Q.** And the Cmax [35]?
**A.** The Cmax was 1100 nM.

**Q.** And the IC50 [36]?
**A.** The IC50 was over 4.7 µM.

**Q.** And the TDI (Cytochrome P450 2C9 [37])?
**A.** The TDI was “Not Active”.

**Q.** And the IC50 (GTPase KRas)?
**A.** Its IC50 is 0.02 µM.

**Q.** And the IC50 (Cytochrome P450 2C9 [38])?
**A.** Its IC50 is 3.74 µM.

**Q.** And the Tmax [39]?
**A.** The Tmax was 1 h.

**Q.** What about the Papp A→B at 2 h, 10 µM [40] of the same compound?
**A.** The Papp A→B at 2 h, 10 µM was 5 ×10⁻⁶ cm/s.
